This note sets out measurements from patent US9187426B2, “Organic compounds” (Novartis AG, priority 2008, dated 2015).

Broadly, the IC50 is the midpoint of a concentration-inhibition curve. Read a low IC50 as higher potency. In general, melting point refers to the temperature of the solid-liquid transition.

Series [1] addresses T1, Stearoyl-CoA Desaturase (SCD1) (Mus musculus, UniProt P13516).
T1 construct: Reactions are started by adding 50 μL of microsomes (1.25 mg/mL); from tissue; host or cells: liver microsomes of male ICR outbred mice on a high-carbohydrate, low-fat diet
T1 sequence (P13516 1-355): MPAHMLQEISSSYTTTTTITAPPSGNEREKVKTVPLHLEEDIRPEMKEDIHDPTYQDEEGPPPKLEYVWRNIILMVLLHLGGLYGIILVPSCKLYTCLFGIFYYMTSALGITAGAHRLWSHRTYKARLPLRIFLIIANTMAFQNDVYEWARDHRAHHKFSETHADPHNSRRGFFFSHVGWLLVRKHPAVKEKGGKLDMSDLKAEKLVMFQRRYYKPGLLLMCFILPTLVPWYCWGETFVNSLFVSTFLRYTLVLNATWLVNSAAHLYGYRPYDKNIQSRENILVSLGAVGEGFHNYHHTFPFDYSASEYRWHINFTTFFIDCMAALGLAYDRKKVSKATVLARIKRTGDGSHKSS
As to the kind of experiment: SCD microsomal assay: release of 3H2O from [9,10-3H]stearoyl-CoA in mouse liver microsomes. The class given is biochemical. The following applies: 15 min incubation, 25° C. The text has this: Measuring Stearoyl-CoA Desaturase Inhibition Activity of a Test Compound Using Mouse Liver Microsomes
The identification of compounds of the invention as SCD inhibitors was readily accomplished using the SCD microsomal assay procedure described in Shanklin J. and Summerville C., Proc. Natl. Acad. Sci. USA (1991), Vol. 88, pp. 2510-2514.
Male ICR outbread mice, on a high-carbohydrate, low fat diet, under light halothane (15% in mineral oil) anesthesia are sacrificed by exsanguination during periods of high enzyme activity. Livers are immediately rinsed with cold 0.9% NaCl solution, weighed and minced with scissors. All procedures are performed at 4° C. unless specified otherwise. Livers are homogenized in a solution (1/3 w/v) containing 0.25 M sucrose, 62 mM potassium phosphate buffer (pH 7.0), 0.15 M KCl, 15 mM N-acetyleysteine, 5 mM MgCl2, and 0.1 mM EDTA using 4 strokes of a Potter-Elvehjem tissue homogenizer. The homogenate is centrifuged at 10,400×g for 20 min to eliminate mitochondria and cellular debris. The supernatant is filtered through a 3-layer cheesecloth and centrifuged at 105,000×g for 60 min. The microsomal pellet is gently resuspended in the same homogenization solution with a small glass/teflon homogenizer and stored at −70° C. The absence of mitochondrial contamination is enzymatically assessed. The protein concentration is measured using bovine serum albumin as the standard.
Desaturase activity is measured as the release of ^3H2O from [9,10-^3H]stearoyl-CoA. Reactions per assay point conditions are as follows: 2 μL 1.5 mM stearoyl-CoA, 0.25 μL 1 mCi/mL ^3H stearoyl CoA, 10 μL 20 mM NADH, 36.75 μL 0.1 M PK buffer (K2HPO4/NaH2PO4, pH 7.2). The test compound or control solution is added in a 1 μL volume. Reactions are started by adding 50 μL of microsomes (1.25 mg/mL). The plates are mixed and after 15 min incubation on a heating block (25° C.), the reactions are stopped by the addition of 10 μL 60% PCA. An aliquot of 100 μL is then transferred to a filter plate pretreated with charcoal and the plate centrifuged at 4000 rpm for 1 minute. The flow through containing the ^3H2O released by the SCD1 desaturation reaction is added to scintillation fluid and the radioactivity measured in a Packard TopCount. The data is analysed to identify the IC50 for test compounds and reference compounds.
On the technique in general: Microsomes from liver hold many membrane-bound enzymes, among them those of drug oxidation.

The compound `Cc1cnc(CNC(=O)c2ccnc(N3CCN(Cc4ccc(F)cc4)C3=O)c2)cn1` [Example 14.2, 2-(3-(4-fluorobenzyl)-2-oxoimidazolidin-1-yl)-N-((5-methylpyrazin-2-yl)methyl)isonicotinamide] gave a melting point of 169 to 171 °C. The compound further gave an IC50 in series [1] of 80 nM.

For the compound `NC(=O)c1ccnc(N2CCN(Cc3ccc(C(F)(F)F)cc3)C2=O)c1` [Example 26.31, 2-(2-Oxo-3-(4-(Trifluoromethyl)-benzyl)imidazolidin-1-yl)isonicotinamide], the melting point lay within 167 to 169 °C. In series [1], this compound yielded a half-inhibitory concentration (IC50) of 180 nM.

In turn, `Cc1cc(CNC(=O)c2ccnc(N3CCN(Cc4ccc(F)c(F)c4)C3=O)c2)no1` [Example 26.23, 2-(3-(3,4-Difluorobenzyl)-2-oxoimidazolidin-1-yl)-N-((5-methylisoxazol-3-yl)methyl)-isonicotinamide] gave a melting point of 153 to 155 °C. Further, in series [1], half-maximal inhibition (IC50) was put at 10 nM.

With `O=C(NCc1ccccc1)c1ccnc(NC(=O)c2cc(F)cc(F)c2)c1` [Example 6.8, N-benzyl-2-(3,5-difluorobenzamido)isonicotinamide], the melting point lay in the range of 185 to 187 °C. In series [1], this compound yielded an IC50 of 410 nM.

`O=C(NCc1cocn1)c1ccnc(N2CCN(Cc3ccc(F)cc3)C2=O)c1` [Example 14, 2-(3-(4-fluorobenzyl)-2-oxoimidazolidin-1-yl)-N-(oxazol-4-ylmethyl)isonicotinamide]: the melting point is 197 to 199 °C. The compound also came in with an IC50 in series [1] of 200 nM.

The compound `Cc1cc(CNC(=O)c2ccnc(-n3cnn(Cc4ccc(F)c(F)c4)c3=O)c2)no1` [Example 24, 2-(1-(3,4-Difluorobenzyl)-5-oxo-1H-1,2,4-triazol-4(5H)-yl)-N-((5-methylisoxazol-3-yl)methyl)-isonicotinamide] displayed a melting point of 160 to 161 °C. The same compound registered a concentration for half-maximal inhibition (IC50) in series [1] of 20 nM.

`O=C(NCc1ccccn1)c1ccnc(N2CCN(Cc3ccc(F)c(F)c3)C2=O)c1` [Example 25, 2-(3-(3,4-Difluorobenzyl)-2-oxoimidazolidin-1-yl)-N-(pyridin-2-ylmethyl)-isonicotinamide] returned a melting point of 99 to 101 °C. For the same compound, the IC50 in series [1] is 20 nM.

In turn, `Cc1cc(CNC(=O)c2ccnc(N3CCN(Cc4ccc(F)cc4)C3=O)c2)no1` [Example 14.10, 2-(3-(4-fluorobenzyl)-2-oxoimidazolidin-1-yl)-N-((5-methylisoxazol-3-yl)methyl)isonicotinamide] registered a melting point of 153 to 155 °C. The compound also showed an IC50 in series [1] of 260 nM.

`Cc1cc(CNC(=O)c2ccnc(-n3cnn(Cc4ccc(F)cc4)c3=O)c2)no1` [Example 26.22, 2-(1-(4-Fluorobenzyl)-5-oxo-1H-1,2,4-triazol-4(5H)-yl)-N-((5-methylisoxazol-3-yl)methyl)-isonicotinamide] came in with a melting point of 198 to 200 °C. This compound gave an IC50 in series [1] of 10 nM.

For the compound `COc1cccc(C(=O)Nc2cc(C(=O)NCc3ccccc3)ccn2)c1` [Example 6.4, N-benzyl-2-(3-methoxybenzamido)isonicotinamide], the melting point fell in the range of 95 to 96 °C. In series [1], this compound showed an IC50 of 130 nM.

`O=C(NCc1ccccn1)c1ccnc(-n2cnn(Cc3ccc(F)cc3)c2=O)c1` [Example 26.27, 2-(1-(4-Fluorobenzyl)-5-oxo-1H-1,2,4-triazol-4(5H)-yl)-N-(pyridin-2-ylmethyl)-isonicotinamide]: the melting point lay in the range of 181 to 183 °C. For the same compound, 120 nM corresponded to half-maximal inhibition in series [1] (IC50).

In the case of `O=C(NCc1ccc(F)cc1)c1ccnc(N2CCN(Cc3ccc(F)cc3)C2=O)c1` [Example 15.4, N-(4-fluorobenzyl)-2-(3-(4-fluorobenzyl)-2-oxoimidazolidin-1-yl)isonicotinamide], the melting point lay within 173 to 175 °C. The IC50 in series [1] amounted to 20 nM.

The compound `O=C(NCc1ccccn1)c1ccnc(N2CCN(Cc3ccc(OC(F)(F)F)cc3)C2=O)c1` [Example 26.15, 2-(2-Oxo-3-(4-(trifluoromethoxy)benzyl)imidazolidin-1-yl)-N-(pyridin-2-ylmethyl)-isonicotinamide] displayed a melting point of 123 to 125 °C. This compound returned an IC50 in series [1] of 50 nM.

Take `O=C(NCc1ccccn1)c1ccnc(N2CCN(Cc3ccc(C(F)(F)F)cc3)C2=O)c1` [Example 26.12, 2-(2-Oxo-3-(4-(trifluoromethyl)benzyl)imidazolidin-1-yl)-N-(pyridin-2-ylmethyl)-isonicotinamide]: the melting point lay in the range of 161 to 163 °C. In addition, the IC50 in series [1] was determined as 10 nM.

With `O=C(Nc1cc(-c2nc(Cc3ccccc3)c[nH]2)ccn1)c1ccccc1` [Example 10.2, N-(4-(4-benzyl-1H-imidazol-2-yl)pyridin-2-yl)benzamide], the melting point was 110 to 112 °C. The compound further showed an IC50 in series [1] of 170 nM.

`NC(=O)c1ccnc(N2CCN(Cc3ccc(F)c(F)c3)C2=O)c1` [Example 26.30, 2-(3-(3,4-Difluorobenzyl)-2-oxoimidazolidin-1-yl)isonicotinamide] gave a melting point of 195 to 198 °C. Moreover, in series [1], the IC50 came out at 1100 nM.

For the compound `Cn1cnc(CNC(=O)c2ccnc(N3CCN(Cc4ccc(F)cc4)C3=O)c2)c1` [Example 14.5, 2-(3-(4-fluorobenzyl)-2-oxoimidazolidin-1-yl)-N-((1-methyl-1H-imidazol-4-yl)methyl)isonicotinamide], the melting point fell in the range of 174 to 176 °C. In series [1], this compound showed an IC50 of 190 nM.

For the compound `NC(=O)c1ccnc(N2CCN(Cc3ccc(OC(F)(F)F)cc3)C2=O)c1` [Example 26.32, 2-(2-Oxo-3-(4-(trifluoromethoxy)-benzyl)imidazolidin-1-yl)isonicotinamide], the melting point lay in the range of 175 to 176 °C. In series [1], this compound came in with a concentration for half-maximal inhibition (IC50) of 1200 nM.

For `Cc1cc(CNC(=O)c2ccnc(N3CCN(Cc4ccc(OC(F)(F)F)cc4)C3=O)c2)no1` [Example 26.13, N-((5-Methylisoxazol-3-yl)methyl)-2-(2-oxo-3-(4-(trifluoromethoxy)-benzyl)imidazolidin-1-yl)isonicotinamide], the melting point lay in the range of 129 to 130 °C. Further, in series [1], the IC50 was determined as 10 nM.

In turn, `O=C(NCc1nccs1)c1ccnc(N2CCN(Cc3ccc(C(F)(F)F)cc3)C2=O)c1` [Example 23, 2-(2-Oxo-3-(4-(trifluoromethyl)benzyl)imidazolidin-1-yl)-N-(thiazol-2-ylmethyl)isonicotinamide] showed a melting point of 139 to 141 °C. Also, in series [1], half-maximal inhibition (IC50) required 10 nM.

Compound `Cc1cc(CNC(=O)c2ccnc(N3CCN(Cc4ccc(C(F)(F)F)cc4)C3=O)c2)no1` [Example 26.18, N-((5-Methylisoxazol-3-yl)methyl)-2-(2-oxo-3-(4-(trifluoromethyl)-benzyl)imidazolidin-1-yl)isonicotinamide] gave a melting point of 153 to 155 °C. Also, the 50% inhibitory concentration (IC50) in series [1] is 10 nM.
